The values below come from patent US4804502A, “Vitamin D compounds” (priority 1988, dated 1989).

The structures appear in SMILES notation.

What all share (conditions): a/b×100 from amounts displacing 50% of 1,25-(OH)2[3H]D3
For assay [1], the target named is T1, 1,25-(OH)2 D3 receptors (chick intestine) (Gallus gallus, UniProt O42392).
T1 construct: receptor prepared from intestine of chick, rat and calf; from tissue; host or cells: chick proximal small-intestine mucosa, cytosol, 35% ammonium sulphate precipitate
T1 sequence (O42392 1-451): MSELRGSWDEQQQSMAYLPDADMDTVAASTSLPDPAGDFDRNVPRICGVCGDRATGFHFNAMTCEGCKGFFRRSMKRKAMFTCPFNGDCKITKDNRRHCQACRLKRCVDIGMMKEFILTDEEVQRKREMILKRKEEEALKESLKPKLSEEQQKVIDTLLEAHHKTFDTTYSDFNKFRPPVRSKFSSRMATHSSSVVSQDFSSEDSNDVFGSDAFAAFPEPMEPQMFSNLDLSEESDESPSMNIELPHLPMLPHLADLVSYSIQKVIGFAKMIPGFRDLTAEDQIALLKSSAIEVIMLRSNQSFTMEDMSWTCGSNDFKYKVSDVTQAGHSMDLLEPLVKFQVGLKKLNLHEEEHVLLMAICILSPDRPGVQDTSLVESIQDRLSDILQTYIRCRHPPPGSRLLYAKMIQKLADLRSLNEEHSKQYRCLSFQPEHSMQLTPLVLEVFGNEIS
Nature of the assay: Competitive Binding to 1,25-(OH)2 D3 Intestine Receptors, chick. The protocol: (§1) The ability of vitamin D3 metabolites to compete for 1,25-(OH)[^3 H]D3 receptor binding sites was evaluated with receptor prepared from intestine of chick, rat and calf. […] Mucosa was collected and washed three times with 10 volumes of cold KTED buffer. The washed mucosa was homogenized in KTED buffer (20% w/v) using a Polytron Pt20 tissue disruptor. Cytosol was prepared by centrifugation of the homogenized mucosa at 300,000×g for 1 hour. […] The ammonium sulphate treated cytosol was centrifuged at 20,000×g for 10 minutes. The supernatant was discarded and the pellet lyophilized and stored at […] Prior to binding assay the pellet was resuspended in cold binding assay buffer containing 150 mM KCl, 50 mM NaPO4, 1.5 mM EDTA and 5 mM dithiothreitol.

Assay [2] has as its target T2, 1,25-(OH)2 D3 receptors (rat intestine) (Rattus norvegicus, UniProt P13053).
T2 construct: receptor prepared from intestine of chick, rat and calf; from tissue; host or cells: rat proximal small-intestine mucosa, cytosol, 35% ammonium sulphate precipitate
T2 sequence (P13053 1-423): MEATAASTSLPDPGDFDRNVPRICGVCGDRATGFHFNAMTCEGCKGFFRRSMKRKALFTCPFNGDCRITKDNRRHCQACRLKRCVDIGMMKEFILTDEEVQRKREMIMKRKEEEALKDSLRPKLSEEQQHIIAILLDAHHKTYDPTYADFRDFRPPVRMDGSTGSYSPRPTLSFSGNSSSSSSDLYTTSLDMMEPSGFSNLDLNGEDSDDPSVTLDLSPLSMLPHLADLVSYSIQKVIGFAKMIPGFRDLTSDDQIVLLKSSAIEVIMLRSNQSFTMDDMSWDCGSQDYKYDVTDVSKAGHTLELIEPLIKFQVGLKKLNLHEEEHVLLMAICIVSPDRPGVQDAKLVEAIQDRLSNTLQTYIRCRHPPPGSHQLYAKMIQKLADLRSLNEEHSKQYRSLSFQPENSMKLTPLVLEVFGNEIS
In words: Competitive Binding to 1,25-(OH)2 D3 Intestine Receptors, rat. The protocol: The ability of vitamin D3 metabolites to compete for 1,25-(OH)[^3 H]D3 receptor binding sites was evaluated with receptor prepared from intestine of chick, rat and calf. The receptor was prepared by removing 10-12% of the small intestine immediately adjacent to the pyloric spincter which was washed immediately with cold buffer containing 500 mM KCl, 50 mM Tris, 1.5 mM EDTA, and 5 mM dithiothreitol, pH 7.4 (KTED buffer). Mucosa was collected and washed three times with 10 volumes of cold KTED buffer. The washed mucosa was homogenized in KTED buffer (20% w/v) using a Polytron Pt20 tissue disruptor. Cytosol was prepared by centrifugation of the homogenized mucosa at 300,000×g for 1 hour. Receptor was precipitated from the cytosol by the addition of ammonium sulphate to achieve 35% saturation. The ammonium sulphate treated cytosol was centrifuged at 20,000×g for 10 minutes. The supernatant was discarded and the pellet lyophilized and stored at […] Prior to binding assay the pellet was resuspended in cold binding assay buffer containing 150 mM KCl, 50 mM NaPO4, 1.5 mM EDTA and 5 mM dithiothreitol.

Assay [3] deals with T3, 1,25-(OH)2 D3 receptors (calf intestine) (Bos taurus, UniProt Q28037).
T3 construct: receptor prepared from intestine of chick, rat and calf; from tissue; host or cells: calf proximal small-intestine mucosa, cytosol, 35% ammonium sulphate precipitate
T3 sequence (Q28037 1-426): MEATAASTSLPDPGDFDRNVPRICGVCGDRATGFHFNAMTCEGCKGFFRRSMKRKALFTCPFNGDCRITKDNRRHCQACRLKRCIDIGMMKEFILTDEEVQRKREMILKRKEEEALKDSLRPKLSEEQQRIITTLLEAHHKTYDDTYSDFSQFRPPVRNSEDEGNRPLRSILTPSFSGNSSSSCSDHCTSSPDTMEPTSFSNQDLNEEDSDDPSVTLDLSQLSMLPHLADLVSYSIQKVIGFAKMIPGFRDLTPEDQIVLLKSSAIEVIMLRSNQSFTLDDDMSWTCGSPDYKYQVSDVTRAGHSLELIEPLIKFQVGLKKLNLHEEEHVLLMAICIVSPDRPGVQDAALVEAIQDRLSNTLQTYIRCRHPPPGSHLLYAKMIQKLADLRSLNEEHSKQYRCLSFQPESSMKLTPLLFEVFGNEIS
Nature of the assay: Competitive Binding to 1,25-(OH)2 D3 Intestine Receptors, calf. The protocol: as §1

Turning to `C=C1/C(=C\C=C2/CCC[C@]3(C)[C@@H]([C@H](C)CC#CC(C)(C)O)CC[C@@H]23)C[C@@H](O)C[C@@H]1O` [Compound A, 1α,25-dihydroxy-23-yne-cholecalciferol], in assay [1], the “Competitive Binding to 1,25-(OH)2 D3 Receptors - % of 1,25-(OH)2 D3 Effect, chick intestine” value worked out at 60%. Further, the “Competitive Binding to 1,25-(OH)2 D3 Receptors - % of 1,25-(OH)2 D3 Effect, rat intestine” value in assay [2] came to 39%. The “Competitive Binding to 1,25-(OH)2 D3 Receptors - % of 1,25-(OH)2 D3 Effect, calf intestine” value in assay [3] is 47%.
Regarding `C=C1/C(=C\C=C2/CCC[C@]3(C)[C@@H]([C@H](C)CC#CC(O)(C(F)(F)F)C(F)(F)F)CC[C@@H]23)C[C@@H](O)C[C@@H]1O` [Compound B], in assay [1], the “Competitive Binding to 1,25-(OH)2 D3 Receptors - % of 1,25-(OH)2 D3 Effect, chick intestine” value came out at 47%. Also, in assay [2], the “Competitive Binding to 1,25-(OH)2 D3 Receptors - % of 1,25-(OH)2 D3 Effect, rat intestine” value worked out at 142%. Moreover, the “Competitive Binding to 1,25-(OH)2 D3 Receptors - % of 1,25-(OH)2 D3 Effect, calf intestine” value in assay [3] worked out at 62%.
